Data: patent US11911445B2, “Peptide YY pharmaceutical formulations, compositions, and methods” (Gila Therapeutics, Inc., priority 2018, dated 2024)
Read-outs that look alike come from different tables or passages of the source. No end group written: not given here.

Columns and labels:
rodents = conditions: augmentation of salivary PYY(3-36); cited from earlier work
mice = conditions: cited from earlier work; for effect on 1-hour food intake: augmentation of salivary peptide; for reduction of caloric intake as compared to controls / caloric intake: mice; for reduction of caloric intake as compared to controls: salivary augmentation; for caloric intake: vehicle 4.10±0.04 kcal
[1] = tested on: subjects with BMIs of 30 to 40 kg/m^2; assay: Dose-escalation clinical trial, feeling of fullness assessed by VAS after lunch; format: in vivo, human
Method: An exemplary clinical trial was performed as a dose-escalation design trial. Approximately twelve evaluable subjects (n˜12) with BMIs of 30 to 40 kg/m^2 received a single dose of placebo followed by study drug (PYY(3-36) also known as GT-001) applied directly to the surface of the lingual mucosa with a disposable pipette followed by a one-day washout. A total of seven (7) doses was escalated to a dose of 2.5 mg/ml.
The dose can be prepared, for example, from a stock solution of 2.5 mg/ml PYY(3-36).
Subjects who complete all screening procedures and meet all inclusion and exclusion criteria described within the protocol and found to be eligible for study enrollment checked into the Study Unit (i.e., the study facility). The morning of the study, participants fasted prior to arriving at the SU. Participants fasted for at least 12 hours prior to Day 1 of the study. Participants were permitted to only drink water prior to arrival to SU and were able to brush their teeth. The following assessments and measurements were taken: • (1) Inspection of the lingual mucosa. • (2) Updating medical and medication history prior to placebo application. • (3) Assessing health status. If participant has either rhinitis or gastrointestinal distress, the participant will be discontinued for that day. • (4) Measuring body weight and BMI. • (5) Measuring vital signs (BP, HR, and body temperature). BP and HR were measured twice in the sitting position and twice in the standing position. If BP was high at baseline sitting (>160 systolic), BP was re-checked after participant was sitting for 5-10 min. Body temperature was measured once. • (6) Performing urine drug screen, urine cotinine test, alcohol breath test, and urine pregnancy test. • (7) Subjects provided a 325-400 calorie breakfast and calorie intake was recorded. • (8) Water was provided “ad-libitum” and volume recorded. • (9) Four (4) hours post breakfast, the VAS for Appetite and Satiety was performed. • (10) Inserting a cannula to obtain blood samples, obtaining a 5 ml blood sample, and screening for anti-GT-001 antibodies. • (11) Obtaining a fasting PK blood sample #1 (5 ml) 15 minutes prior to placebo. • (12) Performing a water mouthwash prior to dosing with GT-001. The mouthwash can be a rinse with 20 ml of water. • (13) Giving one milliliter (1 ml) of placebo (formulation without GT-001) to the participant to the tongue via pipette 5 minutes before lunch. • (14) The solution remained on the tongue for 1 minute followed by asking participants to swish and then swallow. • (15) Completing a VAS for like-lines (VAS completed by subjects). • (16) Collecting PK blood samples after each of seven doses at ±1 minute at 5, 10, 15, 30, and ±5 minutes at 60, 120, and 240 minutes post dose. • (17) Isolating subjects from other subjects during lunch. • (18) Provided a “ad-libitum” lunch (composed of a casserole, nutrient drink and two (2) cookies) and recording calorie intake. • (19) Having subjects complete VAS questionnaire for sweetness, sourness, bitterness, saltiness, umami, and fat taste 20 minutes after completing the meals. • (20) Recording VAS for appetite and satiety every 30 minutes for 2 hours after completing the meal. • (21) Discharging subjects. Subjects ate “at-libitum” until the 12-hour fasting period preceding the next study visit. • (22) During the SU visit, subjects were restricted from ingesting gum, candy, tobacco, carbonated drinks, and from performing exercise. During the meal, subjects were not exposed to food cues (visual, odor, or hearing) and they should eat in isolation.
Days 2, 4, 6, 8, 10, 12 and 14 treatment days are the same as day 1.
The following exemplary VAS Assessment was given to subjects to assess their feeling of fullness before and after receiving PYY(3-36) or placebo and before or after eating at various doses described herein. […]

[2] = PYY concentration in plasma after lingual administration followed by lunch; format: in vivo, human; conditions: 0.25 mg/ml and 2.5 mg/ml, each followed by lunch; up to 4 hours after administration
Method: As shown, administering the placebo followed by food consumption induces the known and expected endogenous production of PYY resulting from food consumption peaking at approximately 20 pg/ml above pre-dose levels at 1-2 hours post-administration.
Subjects who complete all screening procedures and meet all inclusion and exclusion criteria described within the protocol and found to be eligible for study enrollment checked into the Study Unit (i.e., the study facility). The morning of the study, participants fasted prior to arriving at the SU. Participants fasted for at least 12 hours prior to Day 1 of the study. […] BP and HR were measured twice in the sitting position and twice in the standing position. […] Body temperature was measured once. • (6) Performing urine drug screen, urine cotinine test, alcohol breath test, and urine pregnancy test. • (7) Subjects provided a 325-400 calorie breakfast and calorie intake was recorded. • (8) Water was provided “ad-libitum” and volume recorded. • (9) Four (4) hours post breakfast, the VAS for Appetite and Satiety was performed. • (10) Inserting a cannula to obtain blood samples, obtaining a 5 ml blood sample, and screening for anti-GT-001 antibodies. • (11) Obtaining a fasting PK blood sample #1 (5 ml) 15 minutes prior to placebo. • (12) Performing a water mouthwash prior to dosing with GT-001. […]

Substance | taste aversion (rodents) | effect on 1-hour food intake (mice) | reduction of caloric intake as compared to controls (mice; 0.3 μg/100 g) | caloric intake (mice; 0.3 μg/100 g, p=0.01) | reduction of caloric intake as compared to controls (mice; 3 μg/100 g) | caloric intake (mice; 3 μg/100 g, p=0.008) | reduction of caloric intake as compared to controls (mice; 10 μg/100 g) | caloric intake (mice; 10 μg/100 g, p=1.81E-06) | feeling of fullness, VAS score (FIG. 1) ([1]; dose 25 ng applied to the tongue, 120 minutes post-lunch, 12 subjects, significantly above placebo level) | feeling of fullness, VAS score (FIG. 2) ([1]; dose 25 ng, up to 60 minutes post-lunch) | feeling of fullness, VAS score (FIG. 1) ([1]; dose 2.5 μg applied to the tongue, post-lunch, 12 subjects) | feeling of fullness, VAS score (FIG. 2) ([1]; dose 25 μg, maintained out to 120 minutes post-lunch) | feeling of fullness, VAS scale (FIG. 1) ([1]; dose 250 μg applied to the tongue, post-lunch, 12 subjects) | feeling of fullness, VAS score (FIG. 2) ([1]; dose 250 μg, maintained out to 120 minutes post-lunch) | level of PYY in plasma versus placebo/meal combination (FIG. 3) [2]
PYY(3-36) | does not cause taste aversion | decrease | 16% | 3.44 ± 0.06 kcal | 26% | 3.01 ± 0.06 kcal | 42% | 2.36 ± 0.05 kcal | 7 | about 8 | increases | 8 | about 8 | 8 | does not raise the level of PYY in plasma above levels induced by the placebo/meal combination
amylin (KCNTATCATQRLANFLVHSSNNFGAILSSTNVGSNTY; not fully specified (C-terminus, bridges); cysteine pairing not given here; UniProt P10997 34-70, looked up) [peptide tested by salivary augmentation for comparison, reference compound] |  | no effect |  |  |  |  |  |  |  |  |  |  |  |  | 
neuropeptide Y [reference compound] |  | no effect |  |  |  |  |  |  |  |  |  |  |  |  | 
